Experimental data as given in US20110135588A1, “Hair Conditioning Composition Comprising Quaternized Silicone Polymer, Silicone Copolymer, and Carbamate” (priority 2009, published 2011).

Experiment: Product appearance (compatibility with the quaternized silicone polymer and/or solvent thereof): silicone particle size observed by microscope
Format: physicochemical
Conditions: preservative used together with quaternized silicone polymer and its solvent
Procedure: Product Appearance (Compatibility with the Quaternized Silicone Polymer and/or Solvent Thereof)
Product appearance is evaluated as follows, by silicone particle size in compositions which was observed using micro scope.
Pass: Average silicone particle size is 200 μm or less
Fail: Average silicone particle size is above 200 μm (excluding 200 μm)

Compound | Agglomeration of quaternized silicone polymer (product appearance)
C/C=C/C=C/C(=O)[O-].[K+] [potassium sorbate] | form agglomerates
O=C(O)c1ccccc1O [salicylic acid] | form agglomerates
